Assay results as given in patent EP0085985A1, “Pyridazinone derivatives, pharmaceutically acceptable salts thereof and pharmaceutical compositions comprising said compounds” (MITSUBISHI KASEI CORPORATION, priority 1982, dated 1983).

Experiments:
[1] = system: papillary muscle preparation of the dog; test: Isolated and cross-circulated papillary muscle preparation of the dog (contractility); details: Canis lupus familiaris, read-out: Developed tension (% Increase); for activation at 0.03 mg: Dose 30 µg i.a.; for activation at 0.1 mg: Dose 100 µg i.a.
Description: (§1) By way of examples, pharmacological test procedures are described below. • (1) An isolated and cross-circulated papillary muscle preparation of the dog An isolated and cross-circulated papillary muscle preparation of the dog was prepared according to the method of Endo and Hashimoto [see American J. Physiol., 218, 1459-1463, (1970) U. S. A.]. A test compound dissolved in a solvent was applied by proximal intraarterial injection and its effect on contractility of the papillary muscle was determined. The results are shown in Table 1. • (2) Isolated left atrium of the guinea pig Male guinea pigs weighing 200 - 300 g were stunned by a blow on the head and the hearts were quickly excised and placed in a Petri dish containing oxygenated Krebs-Hensleit solution. The left atrium was excised. A fine cotton suture was attached to the left atrial appendage. The tissue was mounted in a 30 ml organ bath filled with Krebs-Hensleit solution at 37°C and oxygenated with 95% 02 - 5% C02 mixture. The cotton thread was then attached to a force- displacement transducer connected to a polygraph. A silver wire electrode connected to a stimulator was placed at the bottom of the preparaticn. Resting tension applied was 0.5 g. The preparation was driven electrically by a stimulator at a rate of 120/min. with suprathreshold rectangular pulses of 1 msec duration. The preparation was left to equilibrate for 1 hour. The test compounds dissolved in vehicle were added to the organ bath and the response was recorded. The results are shown in Table 1. • (3) Intact anesthetized dog preparation Mongrel dogs of either sex weighing 8 - 13 kg were anesthetized with sodium pentobarbital (30 mg/kg i.v.). A tracheal cannula was inserted and artificial respiration was carried out by means of a Harvard respiration. The left femoral vein was cannulated for intravenous bolus injection of the test compounds. The chest was opened at the left 4th intercostal space, the heart was exposed, and a _Walton-Brodie type strain gauge was sutured to the wall of the right ventricle to measure myocadial contractile force. A polyethylene cannula connected to a transducer was introduced into the left ventricle through the ventricular wall and left ventricular pressure was measured. Peak positive rate of rise of left ventricular pressure (dP/dt max) was obtained by an electric differentiator. The test compounds were dissolved in appropriate vehicle and intravenously administered.

[2] = system: left atrium of the guinea pig; test: Isolated, electrically driven left atrium of the guinea pig (contractility)
Description: as §1

[3] = Acute toxicity, LD50 by the Litchfield-Wilcoxon method; details: in vivo
Description: The values for LD50 were determined by the Litchfield-Wilcoxon method [J. T. Litchfield and F. Wilcoxon, J. Pharmacol. exp. Therap., 96, 99 (1949)].

anesthetized dog = test: Intact anesthetized dog preparation (in situ), cardiac contractility; type: in vivo; details: intravenous
Description: as §1

Row | SMILES | activation at 0.03 mg [1] | activation at 0.1 mg [1] | Developed tension (% Increase) ([2]; Concentration 3 x 10^-5 g/ml) | Developed tension (% Increase) ([2]; Concentration 10^-5 g/ml) | LD50 ([3]; iv) | LD50 ([3]; po) | activation at 0.01 mg ([1]; Dose 10 µg i.a.) | Developed tension (% Increase) ([2]; Concentration 3 x 10^-6 g/ml) | Developed tension (% Increase) ([2]; Concentration 10^-6 g/ml) | Contractile force of right ventricle (% Increase) (anesthetized dog; Dose 0.03 mg/kg) | dP/dt max. (% Increase) (anesthetized dog; Dose 0.03 mg/kg) | Contractile force of right ventricle (% Increase) (anesthetized dog; Dose 0.1 mg/kg) | dP/dt max. (% Increase) (anesthetized dog; Dose 0.1 mg/kg) | activation at 0.3 mg ([1]; Dose 300 µg i.a.) | Contractile force of right ventricle (% Increase) (anesthetized dog; Dose 0.3 mg/kg) | dP/dt max. (% Increase) (anesthetized dog; Dose 0.3 mg/kg) | Contractile force of right ventricle (% Increase) (anesthetized dog; Dose 1 mg/kg) | dP/dt max. (% Increase) (anesthetized dog; Dose 1 mg/kg)
1 | NC(=S)Nc1ccc(C2=NNC(=O)CC2)cc1 [Example 1, 4,5-dihydro-6-(4-thioureidophenyl)-3-(2H)-pyridazinone] | 9.5% | 21.2% | 44.9 % Increase | 24.6 % Increase |  |  |  |  |  |  |  |  |  |  |  |  |  | 
2 | CNC(=S)Nc1ccc(C2=NNC(=O)CC2)cc1 [Example 2, 4,5-dihydro-6-(4-N-methylthioureidophenyl)-3-(2H)-pyridazinone] | 47.4% |  |  |  | > 100 mg/kg | > 2200 mg/kg | 8.8% | 32.1 % Increase | 28.9 % Increase | 65.1 % Increase | 28.4 % Increase | 74.8 % Increase | 95.4 % Increase |  |  |  |  | 
3 | CNC(=S)Nc1ccc(-c2ccc(=O)[nH]n2)cc1 [Example 3, 6-(4-N-methylthioureidophenyl)-3-(2H)-pyridazinone] |  | 8.1% | 34.0 % Increase | 28.3 % Increase |  |  |  |  |  |  |  |  |  | 15.9% |  |  |  | 
4 | CCNC(=S)Nc1ccc(C2=NNC(=O)CC2)cc1 [Example 4, 4,5-dihydro-6-(4-N-ethylthioureidophenyl)-3-(2H)-pyridazinone] | 8.4% | 11.5% | 102 % Increase | 85.6 % Increase |  |  |  |  |  |  |  |  |  |  | 75.8 % Increase | 49.9 % Increase | 116.2 % Increase | 79.5 % Increase
